This is an account of results in US20250339433A1, “PHARMACEUTICAL COMPOSITION FOR PREVENTION, ALLEVIATION, OR TREATMENT OF CANCER” (JBKLAB CO.,LTD., priority 2021, published 2025).

The test system of one data set is BT20. Description: Breast cancer cell viability assay (WST-8). Particulars: dose dependently. The class given is cell-based, human. Here is the method:
(§1) An experiment was performed to confirm the growth inhibitory effect of the compounds of Examples 1 and 2, the active ingredients of the pharmaceutical composition of the present invention, on breast cancer cell lines through cell viability assay.
(§2) Specifically, the cell viability assay was performed as follows. BT20, a human-derived breast cancer cell line, and MDA-MB-231, a TNBC cell line, were each seeded in 96-well plates at the density of 5×10^3 cells/well and cultured for 24 hours. […] At the end of the culture, 100 μl of WST-8 solution was added to each well of the plate, and the absorbance was measured with a microplate reader using a 450 nm optical filter to measure the formazan produced by the reducing factors in living cells.
(In general: Formazan colour is commonly taken as a measure of viable cells.)

Data set [1] deals with MDA-MB-231. The experiment in a line: Breast cancer cell viability assay (WST-8). In kind it is cell-based, human. Particulars: dose dependently. Here is the method:
as §1, §2

The next data set deals with MDA-MB-453. The experiment in a line: Breast cancer cell viability assay (WST-8). The class given is cell-based. Particulars: MDA-MB-453, 24 hours, dose dependently. Here is the method: Specifically, the cell viability assay was performed as follows. BT20, a human-derived breast cancer cell line, and MDA-MB-231, a TNBC cell line, were each seeded in 96-well plates at the density of 5×10^3 cells/well and cultured for 24 hours. Then, I-bet 762 and the compounds were treated thereto at different concentrations and cultured for 48 hours. At the end of the culture, 100 μl of WST-8 solution was added to each well of the plate, and the absorbance was measured with a microplate reader using a 450 nm optical filter to measure the formazan produced by the reducing factors in living cells.
FIGS. 10A and 10B show the cell viability of MDA-MB-231, MDA-MB-453, and BT-20 after 24 hours of treatment with the compound of Example 3.

Another data set has as its system A549. The experiment in a line: Cell viability assay (WST-8), cytotoxicity on cancer cell lines. In kind it is cell-based, human. Here is the method: (§3) The cytotoxicity of the compound of Example 1 against various cancer cell lines was evaluated. Etoposide, sold as an anticancer agent, was used as a control group drug. Specifically, the cell viability assay was performed as follows. A549, SK-OV-3, SK-MEL-2, and HCT15 cell lines were seeded in 96 well plates at the density of 5×10^3 cells per well and cultured for 24 hours. Then, the plates were treated with the compound of Example 1 or etoposide at different concentrations, followed by culture for 24 and 48 hours. At the end of the culture, 100 μl of WST-8 solution was added to each well of the plate, and the absorbance was measured with a microplate reader using a 450 nm optical filter to measure the formazan produced by the reducing factors in living cells. • A549: human non-small cell lung cancer cells • SK-OV-3: human ovarian cancer cells • SK-MEL-2: human melanoma cells • HCT15: human colorectal cancer adenocarcinoma cells

The next data set has as its system HCT15. The data set is described as above. In kind it is cell-based, human. Particulars: HCT15, 24 and 48 hours, dose dependently. Here is the method:
as §3

In another data set the test system is SK-MEL-2. The description is as above. The class given is cell-based, human. Particulars: SK-MEL-2, 24 and 48 hours, dose dependently. Here is the method: as §3
Another data set concerns SK-OV-3. The description is as above. The class given is cell-based, human. Particulars: SK-OV-3, 24 and 48 hours, dose dependently. The method, then: as §3
The test system of data set [2] is MDA-MB-231. Description: Breast cancer growth inhibition in xenograft nude mice. The class given is in vivo. Particulars: 25 mpk intravenously. The method, then: An experiment was performed to confirm the tumor inhibition of the compound of Example 1, the active ingredient of the pharmaceutical composition of the present invention, on a xenograft tumor sample of breast cancer cells (MBA-MB-231), a human-derived TNBC cell line.
Specifically, to confirm the effect of the compound of Example 1, which is the active ingredient of the pharmaceutical composition provided by the present invention, on the inhibition of breast cancer cell growth, an experiment was performed using 80 female 5-week-old xenograft Balb/c nude mice. The experimental xenograft Balb/c nude mice lacks T cells, the immune cells, were selected as an animal model suitable for transplanting human cancer cells. At the time of administration, animals within ±20% of the total average body weight were selected, and tumor growth was checked twice a week on the surface, and the size of the tumor was measured with a vernier caliper for 3 weeks. In addition, the compound of Example 1 was administered intravenously at a concentration of 25 mpk, and 30% PEG was used as a solvent.

In data set [3] the test system is MDA-MB-231. The experiment in a line: Number of mitotic figures / apoptotic bodies in xenograft tumor tissue (H&E). In kind it is in vivo, BALB/c-nude mice. Particulars: for Mitotic index: sum of five areas at x400. Here is the method:
An experiment was performed to evaluate the tumor necrosis effect of the compound of Example 1 by measuring the number of apoptotic bodies in tumors and H&E staining of tumor tissues in BALB/c-nude mice injected with cancer cell lines. […] After calculating the sum of the measurements and expressing them as individual values, statistical comparative analysis was performed using GraphPad Prism 5. As a result of observing the apoptotic body, it was observed that the cells were shrunk and divided (blebs) and that empty space (hollow) surrounded the periphery. […] Since the frequency of mitotic figures in tumor tissue is related to the dividing ability of tumor cells, it can reflect the degree of malignancy of the tumor.

Another data set relates to OVCAR-3. The experiment in a line: Combination with cisplatin, cell viability. In kind it is cell-based, human. Here is the method: (§4) Human ovarian cancer cell lines (SKOV-3 and OVCAR-3) were treated with control (no treatment), 0.1 μM of the compound of Example 1, 10 μM of cisplatin, […], and the cell viability of SKOV-3 and OVCAR-3 was confirmed.
The subject of a further data set is SKOV-3. Description: Combination with cisplatin, cell viability. In kind it is cell-based, human. The method, then:
as §4

The subject of another data set is Huh-7. Description: Combination with sorafenib, cell viability / caspase-3 activity. The class given is cell-based, human. The method, then:
(§5) Human liver cancer cell lines (SK Hep1 and Huh-7) were treated with control (no treatment), 5 μM of the compound of Example 1, 0.1 μM of sorafenib, and 5 μM of the compound of Example 1/0.1 μM of sorafenib, and the cell viability of SK Hep1 and Huh-7 was confirmed.

In a further data set the test system is SK Hep1. The data set is described as above. The class given is cell-based, human. The method, then:
as §5

On to `O=C(Nc1n[nH]c2ncc(-c3cnn(C4CCNCC4)c3)cc12)c1ccc(F)cc1` [Example 3, 4-fluoro-N-(5-(1-(piperidin-4-yl)-1H-pyrazol-4-yl)-1H-pyrazolo[3,4-b]pyridin-3-yl)benzamide], for which the cell viability result with BT20 (BT-20, 24 hours) is listed as “suppressed”; in the data set with MDA-MB-231 [1] (MDA-MB-231, 24 hours), “suppressed”; with MDA-MB-453, “suppressed”.
Consider `CN1CCN(c2ccc(C(=O)Nc3n[nH]c4ncc(Br)cc34)cc2)CC1` [Example 2, N-(5-bromo-1H-pyrazolo[3,4-b]pyridin-3-yl)-4-(4-methylpiperazin-1-yl)benzamide], for which the cell viability result in the data set on BT20 (BT20, 24 and 48 hours) is given as “inhibited the cell viability”; in the data set on MDA-MB-231 [1] (MDA-MB-231, 24 and 48 hours) it was “inhibited the cell viability”.
`c1nc(Nc2ccc(N3CCCC3)cc2)c2cc[nH]c2n1` [Example 1, N-(4-(pyrrolidin-1-yl)phenyl)-7H-pyrrolo[2,3-d]pyrimidin-4-amine]: the “toxicity to cancer cell line (cell viability)” value with A549 (A549, 24 and 48 hours, dose dependently) is recorded as “excellent toxicity”; in the data set on HCT15 it was “excellent toxicity”; in the data set on SK-MEL-2, “excellent toxicity”; in the data set with SK-OV-3, “excellent toxicity”. Besides, in the data set on A549 (various cancer cell lines (A549, SK-OV-3, SK-MEL-2, HCT15)), the “toxicity compared with etoposide” value is listed as “equally or more effective than etoposide”. The “biological toxicity (change in body weight)” value with MDA-MB-231 [2] (3 weeks) is “no biological toxicity”. Moreover, the cachexia phenomenon result in the data set with MDA-MB-231 [2] (3 weeks) is reported as “not observed”. For the same molecule, the “tumor growth (change in tumor size/volume)” value in the data set with MDA-MB-231 [2] (vs CTL) was “significantly suppressed”. Moreover, the “tumor growth (change in tumor weight)” value in the data set with MDA-MB-231 [2] (vs CTL) was “significantly suppressed”. In addition, the “number of apoptotic bodies” value in the data set on MDA-MB-231 [3] (T1 and T2 groups compared to NC, dose dependently) is listed as “higher”. In addition, the Mitotic index amounted to 25.5 ± 10.2 with MDA-MB-231 [3] (T1 group (2 times/week)) and 20.8 ± 7.4 with MDA-MB-231 [3] (T2 group (3 times/week)). The cell viability entry with OVCAR-3 (OVCAR-3, 0.1 μM Example 1 in combination with 10 μM cisplatin) was “further inhibited (synergistic effect)”; in the data set with OVCAR-3 (OVCAR-3, 0.1 μM alone), “suppressed”; in the data set on SKOV-3 (SKOV-3, 0.1 μM Example 1 in combination with 10 μM cisplatin) it was “further inhibited (synergistic effect)”; in the data set on SKOV-3 (SKOV-3, 0.1 μM alone) it was “suppressed”; in the data set on Huh-7 (Huh-7, 5 μM Example 1 in combination with 0.1 μM sorafenib) it was “further inhibited (synergistic effect)”; with Huh-7 (Huh-7, 5 μM alone), “suppressed”. Also, the cell viability result was “further inhibited (synergistic effect)” in the data set on SK Hep1 (SK Hep1, 5 μM Example 1 in combination with 0.1 μM sorafenib) and “suppressed” in the data set on SK Hep1 (SK Hep1, 5 μM alone).
As for `N.N.[Cl][Pt][Cl]` [cisplatin, reference compound], the cell viability entry in the data set with OVCAR-3 (OVCAR-3, 1 μM of cisplatin alone) is “suppressed”; with SKOV-3 (SKOV-3, 1 μM of cisplatin alone), “suppressed”.
`CNC(=O)c1cc(Oc2ccc(NC(=O)Nc3ccc(Cl)c(C(F)(F)F)c3)cc2)ccn1` [sorafenib, reference compound]: the cell viability result in the data set with Huh-7 (Huh-7, 0.1 μM sorafenib alone) was “suppressed”; in the data set with SK Hep1 (SK Hep1, 0.1 μM sorafenib alone), “suppressed”.
